Measurements published in PubChem BioAssay AID1645868 (Buhrlage Lab, Dana-Farber Cancer Institute and Novartis …, 2021).
pIC50: −log10 of the molar value. Activity calls are given as the source filed them.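 Rule for the calls: active = maximal percent inhibition of the deubiquitinase OTUD3 of at least 30% across the tested doses; inactive = the rest.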

Biological target: OTU domain-containing protein 3 (Homo sapiens) (UniProt Q5T2D3)
Experiment: Validation of screening hits, potency titration, in vitro enzymatic, OTU domain-containing protein 3 DUB inhibitors (AID 1645868)
Settings: purified OTUD3, ubiquitin-rhodamine cleavage fluorescence, 2 h

Sequence of OTU domain-containing protein 3 (Homo sapiens) (Q5T2D3 whole entry, looked up, the tested form may be a part): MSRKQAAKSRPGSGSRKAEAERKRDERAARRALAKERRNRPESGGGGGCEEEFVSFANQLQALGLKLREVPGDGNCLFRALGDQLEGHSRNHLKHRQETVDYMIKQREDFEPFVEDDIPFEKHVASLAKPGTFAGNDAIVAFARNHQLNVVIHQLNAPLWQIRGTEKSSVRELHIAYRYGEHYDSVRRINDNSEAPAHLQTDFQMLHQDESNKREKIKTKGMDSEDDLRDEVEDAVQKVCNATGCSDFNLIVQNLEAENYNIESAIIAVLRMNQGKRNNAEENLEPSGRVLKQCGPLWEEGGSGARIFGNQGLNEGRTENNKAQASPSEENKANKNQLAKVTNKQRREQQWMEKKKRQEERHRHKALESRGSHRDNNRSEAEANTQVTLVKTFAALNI

| Compound | IC50 | pIC50 |
| --- | --- | --- |
| O=C(Nc1ccc(N2CCOCC2)cc1)c1ccc(-c2ccc(N3CCCC3)nn2)cc1 | > 50 µM (inactive) | – |
| O=C1c2c(O)c(Cl)cc3c2[C@@]2(Oc4cc(Cl)c(O)c5c4[C@]3(O2)[C@@H]2O[C@@H]2C5=O)[C@@H]2O[C@H]12 | – | 6.15 |
| COc1ccc(-c2ccnc(-c3ccc(OCc4cccc(F)c4)cc3)n2)cc1 | – | 4.34 |
| COc1ccc(Nc2nc(C(=O)NCc3ccccc3)cc3occc23)cc1 | > 50 µM (inactive) | – |
| COc1ccc(OC)c(NC(=O)CNC(=O)c2cc3c(OC)cccc3[nH]2)c1 | > 50 µM (inactive) | – |
| O=C(CCc1ccc(S(=O)(=O)N2CCOCC2)cc1)Nc1ccc2c(c1)OCCO2 | > 50 µM (inactive) | – |
| CCOc1ccc(-c2ccc3nnc(SCC(=O)Nc4cccc(C(C)=O)c4)n3n2)cc1 | > 50 µM (inactive) | – |
| CCOC(=O)c1ccc(-n2c(=O)c(C#N)cc3c(=O)n4ccccc4nc32)cc1 | > 50 µM (inactive) | – |
| Cc1cnnn1-c1ccc(C(=O)Nc2ccc(Cl)cc2)cc1 | > 50 µM (inactive) | – |
| CO[C@H]1/C=C/OC2(C)Oc3c(C)c(O)c4c(c3C2=O)C2(C=C(NC(=O)/C(C)=C\C=C\[C@H](C)[C@H](O)[C@@H](C)[C@@H](O)[C@@H](C)[C@H](OC(C)=O)C1C)C4=O)OCC(=O)O2 (some centres not stated) | > 50 µM (inactive) | – |
| O=C(Cc1nnc2c(-c3nc(C4CC4)no3)cccn12)Nc1ccccc1 | – | 4.64 |
| O=C(c1ccc2ncccc2c1)N1CCC2(C1)Nc1cccnc1NC2=NC1CCCC1 (configuration not stated) | > 50 µM (inactive) | – |
| O=C1Nc2c(Cl)cc(Cl)cc2C1(O)c1sc(NC2CCCCC2)nc1-c1ccccc1 (configuration not stated) | – | 4.53 |
| O=C(Cn1c(=O)n(Cc2ccco2)c(=O)c2ccc(C(=O)NC3CCCC3)cc21)NCc1ccco1 | > 50 µM (inactive) | – |
| Cc1cc2nc(/C=C/c3ccccc3)n(Cc3cccc(F)c3)c2cc1C | > 50 µM (inactive) | – |
| CC(C)N1CC2CN(Cc3ccc(Cl)cc3)CCN2Cc2ccccc21 (configuration not stated) | > 50 µM (inactive) | – |
| Cn1cccc1C(=O)N1CCCC2(C1)Nc1cccnc1NC2=NC1CCCC1 (configuration not stated) | > 50 µM (inactive) | – |
| Cc1ccc(Nc2nc(NCCc3ccccc3)nc3c2cnn3C)cc1 | > 50 µM (inactive) | – |
| COc1cc(/C=C/C(=O)OCC(=O)Nc2ccc([N+](=O)[O-])cc2OC)ccc1O | – | 4.61 |
| CSc1ccccc1C(=O)Nc1sc2c(c1C(N)=O)CCC(C)C2 (configuration not stated) | – | 4.65 |
| O=C(NCCc1ccccc1)c1nnn(Cc2cccc(Cl)c2)c1-n1cccc1 | > 50 µM (inactive) | – |
| COc1ccc(OC)c(NC(=O)C2Oc3ccccc3NC2=O)c1 (configuration not stated) | > 50 µM (inactive) | – |
| Fc1ccc(CSc2nnc(-c3ccccn3)n2Cc2ccco2)cc1 | > 50 µM (inactive) | – |
| COc1cc2c(c3oc4cccc(O)c4c(=O)c13)C1C=COC1O2 (configuration not stated) | > 50 µM (inactive) | – |

| Compound | IC50 | pIC50 |
| --- | --- | --- |
| Cc1ccccc1OCCSc1nc2ccccc2n1CC(=O)NC1CC1 | – | 4.60 |
| Cc1nc(SCC#N)c2oc3ccccc3c2n1 | > 50 µM (inactive) | – |
| Cc1cc(C)c2sc(N(CCCn3ccnc3)C(=O)Cc3ccccc3)nc2c1 | – | 4.62 |
| COc1cc(Cl)c(C)cc1NC(=O)Cn1c(=O)n(CC(=O)NCc2ccco2)c(=O)c2ccccc21 | > 50 µM (inactive) | – |
| Cc1cc(NC(=O)c2cc(-c3cccnc3)n[nH]2)ccc1Br | – | 4.92 |
| O=C(Nc1ccc(F)cc1F)c1csc(-c2ccccc2)n1 | – | 4.46 |
| Cc1ccc(C(=O)NCc2ccc(C(=O)Nc3cccc(C)c3)o2)cc1 | > 50 µM (inactive) | – |
| Cc1sc2ncnc(OCc3ccc(F)cc3Cl)c2c1C | > 50 µM (inactive) | – |
| CC1(O)CC(=O)c2c(cc3cc(O)cc(O)c3c2O)C1 (configuration not stated) | – | 6.73 |
| O=C(COc1nc2ccccc2nc1N1CCOCC1)Nc1cccc(S(=O)(=O)N2CCCCC2)c1 | > 50 µM (inactive) | – |
| CC(C)(C)C(=O)[C@@H]1[C@@H](C(=O)c2ccc3c(c2)OCO3)[C@@]2(C(=O)Nc3ccccc32)[C@H]2c3ccccc3C=CN12 | > 50 µM (inactive) | – |
| O=S(=O)(O)c1cc2cc3ccccc3cc2[nH]1 | > 50 µM (inactive) | – |
| Cc1ccccc1C(=O)NCCn1cc(SCC(=O)Nc2ccc3c(c2)OCCO3)c2ccccc21 | > 50 µM (inactive) | – |
| O=C(c1ccnn1-c1ccc2ccc(-c3ccncc3)cn12)N1CCCC1 | > 50 µM (inactive) | – |
| O=C(Nc1ccccc1)c1cn(-c2cc(N3CCCC3)ncn2)cn1 | > 50 µM (inactive) | – |
| O=C(OCc1ccc(Br)cc1)c1ccc2ccccc2n1 | > 50 µM (inactive) | – |
| NC(=O)c1nc(-c2cccnc2)nc2c1[nH]c(=O)n2-c1ccc2c(c1)OCO2 | > 50 µM (inactive) | – |
| COc1cccc(NC(=O)C2CCN(C(=O)c3cc(-c4cccnc4)n[nH]3)CC2)c1 | > 50 µM (inactive) | – |
| Cc1nn(-c2ccc([N+](=O)[O-])cc2)c(C)c1-c1nc2ccccc2[nH]1 | – | 4.61 |
| O=C(C(c1ccccc1)c1ccccc1)N1CCC(c2nc3c(nnn3Cc3c(F)cccc3Cl)c(=O)[nH]2)CC1 | – | 4.56 |
| Cc1ccc2[nH]c3c(=O)n(CC4CCCO4)cnc3c2c1 (configuration not stated) | – | 4.35 |
| CN(C)C1CCN(C(=O)c2cc(-c3ccn(-c4ccccc4)n3)n3ccccc23)CC1 | > 50 µM (inactive) | – |
| COCCNC(=O)c1cc(-c2cn(-c3ccccn3)c(C)n2)n2ccccc12 | > 50 µM (inactive) | – |
